# Measurements as given in PubChem BioAssay AID588774 (The Scripps Research Institute Molecular Screening Center, 2011).
# Calls of active or inactive are those of the source.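 How the source made its calls: active means target enzyme inhibited at least 50% at a set dose, and selective over every off-target enzyme by a set factor; inactive means weaker inhibition or too little selectivity.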
# Assays:
# [1] = pPAFAH inhibition and serine hydrolase selectivity, SAR follow-up, selectivity assay for pPAFAH inhibitor project, biochemical, gel-based, FP-Rh fluorescence, complex proteome, SAR compounds (AID 588774); conditions: gel-based competitive ABPP, at 10 µM;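 on inhibition: 0% = DMSO-only band intensity and 100% = blank gel background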
# [2] = tested on: ABHD3; assay: as above; conditions: gel-based competitive ABPP, stronger effect = higher value
# [3] = target: ABHD4 (UniProt Q8VD66); assay: as above; conditions: gel-based competitive ABPP, stronger effect = higher value
# [4] = tested on: ABHD6; assay: as above; conditions: gel-based competitive ABPP, stronger effect = higher value
# [5] = tested on: FAAH; assay: as above; conditions: gel-based competitive ABPP, stronger effect = higher value
# [6] = tested on: LYPLA1; assay: as above; conditions: gel-based competitive ABPP, stronger effect = higher value
# [7] = tested on: LYPLA2; assay: as above; conditions: gel-based competitive ABPP, stronger effect = higher value
# [8] = tested on: MW 30 kDa; assay: as above; conditions: gel-based competitive ABPP, at 1 µM, stronger effect = higher value
# [9] = tested on: MW 32 kDa; assay: as above; conditions: gel-based competitive ABPP, at 1 µM, stronger effect = higher value
# [10] = target: Monoglyceride lipase (Mus musculus) (UniProt O35678); assay: as above; conditions: gel-based competitive ABPP, MAGL, stronger effect = higher value
# [11] = target: Platelet-activating factor acetylhydrolase (Mus musculus) (UniProt Q60963); assay: as above; conditions: gel-based competitive ABPP, pPAFAH, stronger effect = higher value
# [12] = tested on: pPAFAH; assay: as above; conditions: gel-based competitive ABPP, anti-targets inhibited, at 10 µM
# Chain of Platelet-activating factor acetylhydrolase (Mus musculus) (Q60963 whole entry, looked up): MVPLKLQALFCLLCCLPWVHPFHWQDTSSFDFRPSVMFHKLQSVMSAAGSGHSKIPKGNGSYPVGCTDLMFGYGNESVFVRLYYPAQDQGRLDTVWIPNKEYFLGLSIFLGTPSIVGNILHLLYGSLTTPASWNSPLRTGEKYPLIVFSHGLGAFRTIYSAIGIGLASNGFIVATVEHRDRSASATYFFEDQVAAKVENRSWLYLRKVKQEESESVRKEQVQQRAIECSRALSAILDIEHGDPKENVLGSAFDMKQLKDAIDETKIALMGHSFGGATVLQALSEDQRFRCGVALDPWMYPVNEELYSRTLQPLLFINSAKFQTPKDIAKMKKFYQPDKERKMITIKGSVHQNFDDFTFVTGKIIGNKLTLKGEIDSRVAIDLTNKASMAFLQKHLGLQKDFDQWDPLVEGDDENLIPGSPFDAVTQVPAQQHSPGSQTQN
# Chain of Monoglyceride lipase (Mus musculus) (O35678 whole entry, looked up): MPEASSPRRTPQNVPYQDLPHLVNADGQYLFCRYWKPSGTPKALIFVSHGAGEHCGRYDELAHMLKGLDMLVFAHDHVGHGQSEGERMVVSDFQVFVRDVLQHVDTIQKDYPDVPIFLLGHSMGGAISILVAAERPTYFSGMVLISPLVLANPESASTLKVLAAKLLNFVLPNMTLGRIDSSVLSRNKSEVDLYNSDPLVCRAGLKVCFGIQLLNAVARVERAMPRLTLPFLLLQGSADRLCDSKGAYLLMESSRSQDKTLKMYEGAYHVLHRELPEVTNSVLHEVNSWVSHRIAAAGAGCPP
# Chain of ABHD4 (Q8VD66 whole entry, looked up): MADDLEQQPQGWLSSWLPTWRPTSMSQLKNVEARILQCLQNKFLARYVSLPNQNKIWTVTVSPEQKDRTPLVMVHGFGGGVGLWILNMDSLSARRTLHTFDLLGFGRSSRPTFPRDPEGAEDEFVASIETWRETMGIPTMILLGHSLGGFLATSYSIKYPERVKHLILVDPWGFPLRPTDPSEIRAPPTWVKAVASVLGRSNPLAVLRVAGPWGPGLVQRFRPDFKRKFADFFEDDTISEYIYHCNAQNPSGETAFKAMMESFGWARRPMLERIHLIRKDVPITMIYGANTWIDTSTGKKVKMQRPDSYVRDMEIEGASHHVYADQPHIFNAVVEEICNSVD
smiles,measurement,setting,value
Cc1cc(N2CCN(C(=O)n3ncc(-c4ccc([N+](=O)[O-])cc4)n3)CC2)c2ccccc2n1,anti-target count,"[1]; ABHD3, anti-targets inhibited",9
same,anti-target count,"[1]; ABHD4, anti-targets inhibited",9
same,anti-target count,"[1]; ABHD6, anti-targets inhibited",9
same,anti-target count,"[1]; FAAH, anti-targets inhibited",9
same,anti-target count,"[1]; LYPLA1, anti-targets inhibited",9
same,anti-target count,"[1]; LYPLA2, anti-targets inhibited",9
same,anti-target count,"[1]; MAGL, anti-targets inhibited",9
same,inhibition,[2]; at 10 µM,100% (inactive)
same,inhibition,"[2]; inhibition, at 0.1 µM",11%
same,inhibition,"[2]; inhibition, at 1 µM",94%
same,inhibition,[3]; at 10 µM,100% (inactive)
same,inhibition,"[3]; inhibition, at 0.1 µM",11%
same,inhibition,"[3]; inhibition, at 1 µM",94%
same,inhibition,[4]; at 10 µM,72% (inactive)
same,inhibition,"[4]; inhibition, at 0.1 µM",17%
same,inhibition,"[4]; inhibition, at 1 µM",59%
same,inhibition,[5]; at 10 µM,87% (inactive)
same,inhibition,"[5]; inhibition, at 0.1 µM",6%
same,inhibition,"[5]; inhibition, at 1 µM",81%
same,inhibition,[6]; at 10 µM,100% (inactive)
same,inhibition,"[6]; inhibition, at 0.1 µM",5%
same,inhibition,"[6]; inhibition, at 1 µM",86%
same,inhibition,[7]; at 10 µM,100% (inactive)
same,inhibition,"[7]; inhibition, at 1 µM",58%
same,inhibition,[8],67%
same,inhibition,[9],59%
same,inhibition,[10]; at 10 µM,84% (inactive)
same,inhibition,"[10]; inhibition, at 0.1 µM",28%
same,inhibition,"[10]; inhibition, at 1 µM",68%
same,inhibition,[11]; at 10 µM,99%
same,inhibition,"[11]; inhibition, at 0.1 µM",97%
same,inhibition,"[11]; inhibition, at 1 µM",99%
same,anti-target count,[12],9
